Assay results as given in ChEMBL document CHEMBL5584243, “Discovery of JNJ-74856665: A Novel Isoquinolinone DHODH Inhibitor for the Treatment of AML” (J Med Chem, 2024).
Converted amounts (≈) assume the structure as drawn.

Experiments:
MOLM-13 [1] = test: Antiproliferative activity against human MOLM-13 cells assessed as inhibition of cell growth incubated for 72 hrs by CellTiter-Glo assay; assay type: functional, cell-based; conditions: MOLM-13, 72 h
[2] = Equilibrium solubility of compound in PBS at pH 2 incubated for 2 to 5 days by HPLC analysis; assay type: physicochemical; conditions: time 2-5 day; for solubility thermodynamic: PBS
[3] = Metabolic stability in mouse liver microsomes assessed as half life incubated upto 60 mins in presence of NADPH by LC-MS/MS analysis; assay type: ADME, Microsome
[4] = Metabolic stability in human liver microsomes assessed as half life incubated upto 60 mins in presence of NADPH by LC-MS/MS analysis; assay type: ADME, Microsome
[5] = Equilibrium solubility of compound in PBS at pH 7 incubated for 2 to 5 days by HPLC analysis; assay type: physicochemical; conditions: time 2-5 day
[6] = Passive permeability across apical to basolateral side in dog MDCK-MDR1 cells; assay type: ADME, cell-based, Canis lupus familiaris
[7] = Oral bioavailability in C57BL mouse at 10 mg/kg measured upto 24 hrs by LC-MS/MS analysis; assay type: ADME, organism-based; conditions: in vivo
[8] = Tmax in C57BL mouse at […] measured upto 24 hrs by LC-MS/MS analysis; assay type: ADME, organism-based; conditions: in vivo
[9] = Equilibrium solubility of compound in SGF at pH 1 using amorphous form of sample incubated for 2 to 5 days by HPLC analysis; assay type: ADME; conditions: time 2-5 day
[10] = Plasma protein binding in human at 1 uM incubated for 6.5 hrs by LC-MS/MS analysis; assay type: ADME, cell-free; conditions: read-out: PPB (converted)
[11] = Volume of distribution at steady state in C57BL mouse at 2 mg/kg,iv measured upto 24 hrs by LC-MS/MS analysis; assay type: ADME, organism-based; conditions: in vivo, read-out: Vdss
[12] = Plasma protein binding in C57BL mouse at 1 uM incubated for 6.5 hrs by LC-MS/MS analysis; assay type: ADME, cell-free; conditions: read-out: PPB (converted)
[13] = Equilibrium solubility of compound in FaSSIF at pH 6.5 using amorphous form of sample incubated for 2 to 5 days by HPLC analysis; assay type: ADME; conditions: time 2-5 day
[14] = Cmax in C57BL mouse at […] measured upto 24 hrs by LC-MS/MS analysis; assay type: ADME, organism-based; conditions: in vivo
[15] = Half life in C57BL mouse at 2 mg/kg,iv measured upto 24 hrs by LC-MS/MS analysis; assay type: ADME, organism-based; conditions: in vivo
[16] = AUC (0 to infinity) in C57BL mouse at 2 mg/kg,iv measured upto 24 hrs by LC-MS/MS analysis; assay type: ADME, organism-based; conditions: in vivo
MOLM-13 [17] = test: Antitumor activity against human MOLM-13 cells xenografted in NSG mouse assessed as tumor growth inhibition at po administrated for 21 days; assay type: functional, organism-based; conditions: time 21.0 day
[18] = Equilibrium solubility of compound in FaSSIF at pH 6.5 using crystalline form incubated for 2 to 5 days by HPLC analysis; assay type: ADME; conditions: time 2-5 day
[19] = Lipophilicity, logD of compound; assay type: physicochemical; conditions: octanol/water
[20] = Equilibrium solubility of compound in SGF at pH 1 using crystalline form incubated for 2 to 5 days by HPLC analysis; assay type: ADME; conditions: time 2-5 day
MOLM-13 [21] = test: Antitumor activity against human MOLM-13 cells xenografted in NSG mouse assessed as tumor growth inhibition at 0.625 to 2.5 mg/kg,po administrated for 21 days relative to control; assay type: functional; conditions: dose 0.625-2.5 mg/kg, time 21 day
[22] = biological target: Dihydroorotate dehydrogenase (quinone), mitochondrial (Homo sapiens, UniProt Q02127); test: Inhibition of recombinant human DHODH followed by DHO substrate by DCIP dye absorbance based spectrophotometric analysis
Chain of Dihydroorotate dehydrogenase (quinone), mitochondrial (Q02127 whole entry): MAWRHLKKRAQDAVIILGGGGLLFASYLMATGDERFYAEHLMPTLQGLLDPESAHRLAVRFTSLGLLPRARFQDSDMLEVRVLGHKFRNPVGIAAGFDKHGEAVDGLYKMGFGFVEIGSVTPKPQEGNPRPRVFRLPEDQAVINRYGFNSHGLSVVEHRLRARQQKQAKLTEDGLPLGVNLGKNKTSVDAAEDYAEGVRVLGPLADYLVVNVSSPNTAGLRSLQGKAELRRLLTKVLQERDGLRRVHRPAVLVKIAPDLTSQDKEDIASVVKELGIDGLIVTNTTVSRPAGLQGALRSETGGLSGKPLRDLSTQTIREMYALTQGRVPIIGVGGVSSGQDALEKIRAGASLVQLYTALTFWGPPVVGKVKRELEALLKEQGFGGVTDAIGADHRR

[23] = biological target: T1, Aryl hydrocarbon receptor (Homo sapiens, UniProt P35869); test: Activation of AhR (unknown origin) at 1 to 10 uM; conditions: dose 1-10 µM
T1 sequence (P35869 whole entry): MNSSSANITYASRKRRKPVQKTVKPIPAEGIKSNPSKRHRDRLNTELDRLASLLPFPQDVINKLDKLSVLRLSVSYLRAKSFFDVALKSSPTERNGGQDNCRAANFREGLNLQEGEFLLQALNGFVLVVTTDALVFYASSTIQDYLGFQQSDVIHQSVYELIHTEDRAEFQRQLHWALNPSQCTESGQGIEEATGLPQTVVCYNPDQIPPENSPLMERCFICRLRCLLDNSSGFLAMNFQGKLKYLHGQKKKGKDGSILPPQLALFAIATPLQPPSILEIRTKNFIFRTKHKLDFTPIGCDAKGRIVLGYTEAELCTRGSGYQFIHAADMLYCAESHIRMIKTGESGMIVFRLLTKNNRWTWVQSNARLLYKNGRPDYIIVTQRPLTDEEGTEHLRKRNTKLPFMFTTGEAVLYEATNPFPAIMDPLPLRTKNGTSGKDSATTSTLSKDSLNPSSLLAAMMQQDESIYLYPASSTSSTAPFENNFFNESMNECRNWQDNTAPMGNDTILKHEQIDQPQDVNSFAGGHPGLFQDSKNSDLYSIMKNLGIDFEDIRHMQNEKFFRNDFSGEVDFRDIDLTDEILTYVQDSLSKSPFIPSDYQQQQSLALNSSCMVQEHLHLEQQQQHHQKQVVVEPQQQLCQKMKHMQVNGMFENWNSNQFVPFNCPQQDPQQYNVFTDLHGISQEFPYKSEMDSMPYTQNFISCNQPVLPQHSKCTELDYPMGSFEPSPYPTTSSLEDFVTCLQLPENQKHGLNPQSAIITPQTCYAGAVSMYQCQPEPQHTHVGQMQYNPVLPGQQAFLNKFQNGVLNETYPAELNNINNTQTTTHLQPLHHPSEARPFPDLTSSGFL

| SMILES | IC50 (MOLM-13 [1]) [nM] | solubility thermodynamic [2] [µM] | half-life [3] [h] | half-life [4] [h] | solubility thermodynamic [5] [µM] | Papp A→B [6] [×10⁻⁶ cm/s] | further results |
| --- | --- | --- | --- | --- | --- | --- | --- |
| C=C(C)c1cn(-c2c(F)cccc2Cl)c(=O)c2cc(F)c(-n3nc(CO)n(CC)c3=O)nc12 | 1.1 | – | – | – | – | – | – |
| CCn1c(CO)nn(-c2cc3c([C@H](C)C(F)(F)F)cn(-c4ccccc4C)c(=O)c3cc2F)c1=O | 0.59 | 164 (≈ 80.4 µg/mL) | > 3 | > 3 | 180 (≈ 88.3 µg/mL) | 20.3 | – |
| CCn1c(CO)nn(-c2cc3c(C(C)C)cn(-c4ccccc4C(F)(F)F)c(=O)c3cc2F)c1=O | 0.63 | – | > 3 | > 3 | 39 (≈ 19.1 µg/mL) | 40.4 | bioavailability [7]: 127%; Tmax [8]: 1.3 h; solubility ([2]; buffer): Not Active; solubility thermodynamic [9]: 17 µg/mL (≈ 34.7 µM); fraction unbound at 6.5 h, 1 µM [10]: 0.063; Vd [11]: 1.2 L/kg; fraction unbound at 6.5 h, 1 µM [12]: 0.067; solubility thermodynamic [13]: 97 µg/mL (≈ 198 µM); Cmax [14]: 5700 ng/mL; half-life [15]: 4.3 h; AUC [16]: 71100 ng·h/mL |
| CCn1c(CO)nn(-c2cc3c(C(C)C)cn(-c4ccccc4F)c(=O)c3cc2F)c1=O | 2.1 | 19 (≈ 8.37 µg/mL) | > 3 | > 3 | 19 (≈ 8.37 µg/mL) | 30.1 | – |
| CCn1c(CO)nn(-c2nc(OC(C)C(F)(F)F)c(C(=O)Nc3c(F)cccc3Cl)cc2F)c1=O (stereo unspecified) | 0.16 | – | – | – | < 4 | – | IC50 [22]: 0.2 nM |
| CCn1c(CO)nn(-c2cc3c(C4(C)CC4)cn(-c4c(F)cccc4Cl)c(=O)c3cc2F)c1=O | 3.1 | – | – | – | – | – | – |
| CCn1c(CO)nn(-c2cc3c([C@@H](C)C(F)(F)F)cn(-c4ccccc4C)c(=O)c3cc2F)c1=O | 0.42 | 184 (≈ 90.2 µg/mL) | > 3 | > 3 | 181 (≈ 88.8 µg/mL) | < 41 | bioavailability [7]: 98%; Tmax [8]: 1.5 h; logD [19]: 2.6; solubility thermodynamic [9]: < 5 µg/mL; fraction unbound at 6.5 h, 1 µM [10]: 0.1; Vd [11]: 1.3 L/kg; fraction unbound at 6.5 h, 1 µM [12]: 0.093; solubility thermodynamic [13]: 41 µg/mL (≈ 83.6 µM); Cmax [14]: 4500 ng/mL; half-life [15]: 4 h; AUC [16]: 39000 ng·h/mL |
| CCn1c(CO)nn(-c2cc3c(C(C)C)cn(-c4ccccc4Cl)c(=O)c3cc2F)c1=O | 0.28 | 153 (≈ 69.9 µg/mL) | > 3 | > 3 | 155 (≈ 70.8 µg/mL) | 50.7 | – |
| CCc1ccccc1-n1cc(C(C)C)c2cc(-n3nc(CO)n(CC)c3=O)c(F)cc2c1=O | 1.8 | 193 (≈ 86.9 µg/mL) | 1.83 | > 3 | 157 (≈ 70.7 µg/mL) | 37.3 | – |
| Cc1oncc1C(=O)Nc1ccc(C(F)(F)F)cc1 [LEFLUNOMIDE] | – | – | – | – | – | – | Activity [23]: Active |
| CCn1c(CO)nn(-c2cc3c(C(C)C)cn(-c4ccccc4C(F)F)c(=O)c3cc2F)c1=O | 0.56 | 228 (≈ 108 µg/mL) | > 3 | 2.98 | 11 (≈ 5.2 µg/mL) | 39 | – |
| CCn1c(CO)nn(-c2nc3c(C(C)C)cn(-c4c(F)cccc4Cl)c(=O)c3cc2F)c1=O | 0.44 | – | – | – | – | – | – |

Continued, in another order:

| IC50 (MOLM-13 [1]) [nM] | solubility thermodynamic [2] [µM] | half-life [3] [h] | half-life [4] [h] | solubility thermodynamic [5] [µM] | Papp A→B [6] [×10⁻⁶ cm/s] | SMILES | further results |
| --- | --- | --- | --- | --- | --- | --- | --- |
| 0.22 | < 4 | > 3 | > 3 | < 4 | 24.5 | CCn1c(CO)nn(-c2cc3c(C(C)C)cn(-c4c(F)cccc4Cl)c(=O)c3cc2F)c1=O | bioavailability [7]: 135%; Activity (MOLM-13 [17]): Dose-Dependent Effect; solubility thermodynamic [18]: < 5 µg/mL; Tmax [8]: 0.83 h; logD [19]: 3.1; fraction unbound at 6.5 h, 1 µM [10]: 0.042; Vd [11]: 1.3 L/kg; fraction unbound at 6.5 h, 1 µM [12]: 0.024; solubility thermodynamic [20]: < 5 µg/mL; Cmax [14]: 8200 ng/mL; half-life [15]: 5.1 h; TGI (MOLM-13 [21]): >80%; AUC [16]: 71800 ng·h/mL |
| 0.69 | 23 (≈ 10.5 µg/mL) | > 3 | > 3 | 24 (≈ 10.9 µg/mL) | 47.4 | CCn1c(CO)nn(-c2cc3c(C(C)C)cn(-c4c(C)cccc4F)c(=O)c3cc2F)c1=O | – |
| 1 | 19 (≈ 8.6 µg/mL) | > 3 | > 3 | 20 (≈ 9.05 µg/mL) | 25.1 | CCn1c(CO)nn(-c2cc3c(C(C)C)cn(-c4ccccc4OC)c(=O)c3cc2F)c1=O | – |
| 0.67 | 25 (≈ 11.4 µg/mL) | > 3 | > 3 | 266 (≈ 121 µg/mL) | 48.2 | CCn1c(CO)nn(-c2cc3c(C(C)C)cn(-c4ccc(F)cc4C)c(=O)c3cc2F)c1=O | logD [19]: 2.7 |
| 0.86 | 30 (≈ 13.6 µg/mL) | > 3 | > 3 | 30 (≈ 13.6 µg/mL) | 45.9 | CCn1c(CO)nn(-c2cc3c(C(C)C)cn(-c4cc(F)ccc4C)c(=O)c3cc2F)c1=O | – |
| 5.6 | 235 (≈ 107 µg/mL) | > 3 | > 3 | 189 (≈ 85.9 µg/mL) | 23.5 | CCn1c(CO)nn(-c2cc3c(C(C)C)cn(-c4cccc(F)c4C)c(=O)c3cc2F)c1=O | – |
| 2.4 | 78 (≈ 39.2 µg/mL) | > 3 | > 3 | 21 (≈ 10.5 µg/mL) | 42.6 | CCn1c(CO)nn(-c2cc3c(C(C)C)cn(-c4c(C)cnc(OC)c4Cl)c(=O)c3cc2F)c1=O | bioavailability [7]: 109%; Tmax [8]: 1.5 h; solubility thermodynamic [9]: < 5 µg/mL; fraction unbound at 6.5 h, 1 µM [10]: 0.059; Vd [11]: 2.1 L/kg; fraction unbound at 6.5 h, 1 µM [12]: 0.038; solubility thermodynamic [13]: 16 µg/mL (≈ 31.9 µM); Cmax [14]: 4100 ng/mL; half-life [15]: 7 h; AUC [16]: 82500 ng·h/mL |
